Assay: xn = mol fraction of the nth substance listed
Settings: 100 kPa, Liquid; for viscosity: Concentric cylinders viscometry; for mass density: Vibrating tube method

CCCCCCn1cc[n+](C)c1.O=[N+]([O-])[O-] [1-hexyl-3-methylimidazolium nitrate] + CCCCCCCCCCO
Settings	mass density [kg/m3]	viscosity [mPa·s]
293.15 K, x1 = 0.0818	855.4	18.62
293.15 K, x1 = 0.1583	879.2	24.27
293.15 K, x1 = 0.2414	904.7	33.34
293.15 K, x1 = 0.3482	937.1	50.7
293.15 K, x1 = 0.4414	964.8	73.79
293.15 K, x1 = 0.5593	999.2	119.12
293.15 K, x1 = 0.6481	1024.6	173.38
293.15 K, x1 = 0.7414	1050.8	261.82
293.15 K, x1 = 0.8496	1080.4	419.76
293.15 K, x1 = 0.9402	1104.7	625.17
293.15 K, x1 = 1	1120.3	804.17
298.15 K, x1 = 0.0818	851.9	15
298.15 K, x1 = 0.1583	875.7	18.75
298.15 K, x1 = 0.2414	901.3	23.93
298.15 K, x1 = 0.3482	933.6	33.81
298.15 K, x1 = 0.4414	961.4	47.42
298.15 K, x1 = 0.5593	995.8	74.3
298.15 K, x1 = 0.6481	1021.3	111.69
298.15 K, x1 = 0.7414	1047.5	171
298.15 K, x1 = 0.8496	1077.3	276.06
298.15 K, x1 = 0.9402	1101.7	417.45
298.15 K, x1 = 1	1117.5	545.25
303.15 K, x1 = 0.0818	848.4	11.86
303.15 K, x1 = 0.1583	872.2	14.39
303.15 K, x1 = 0.2414	897.7	17.58
303.15 K, x1 = 0.3482	930	22.91
303.15 K, x1 = 0.4414	957.8	30.27
303.15 K, x1 = 0.5593	992.2	45.39
303.15 K, x1 = 0.6481	1017.7	65.77
303.15 K, x1 = 0.7414	1044	98.7
303.15 K, x1 = 0.8496	1073.9	168.66
303.15 K, x1 = 0.9402	1098.4	267.65
303.15 K, x1 = 1	1114.3	369.14
308.15 K, x1 = 0.0818	845	9.51
308.15 K, x1 = 0.1583	868.7	10.86
308.15 K, x1 = 0.2414	894.2	12.85
308.15 K, x1 = 0.3482	926.4	16.03
308.15 K, x1 = 0.4414	954.2	20.04
308.15 K, x1 = 0.5593	988.6	28.44
308.15 K, x1 = 0.6481	1014.2	39.63
308.15 K, x1 = 0.7414	1040.5	60.67
308.15 K, x1 = 0.8496	1070.5	108.57
308.15 K, x1 = 0.9402	1095.1	183.87
308.15 K, x1 = 1	1111.1	257.59
313.15 K, x1 = 0.0818	841.4	7.41
313.15 K, x1 = 0.1583	865.1	8.15
313.15 K, x1 = 0.2414	890.6	8.97
313.15 K, x1 = 0.3482	922.8	10.16
313.15 K, x1 = 0.4414	950.5	11.94
313.15 K, x1 = 0.5593	984.9	16.52
313.15 K, x1 = 0.6481	1010.5	23.5
313.15 K, x1 = 0.7414	1036.9	35.97
313.15 K, x1 = 0.8496	1067	67.47
313.15 K, x1 = 0.9402	1091.7	123.98
313.15 K, x1 = 1	1107.8	185.67
318.15 K, x1 = 0.0818	837.9	5.98
318.15 K, x1 = 0.1583	861.6	6.21
318.15 K, x1 = 0.2414	887	6.44
318.15 K, x1 = 0.3482	919.2	7.1
318.15 K, x1 = 0.4414	946.9	8.12
318.15 K, x1 = 0.5593	981.4	9.93
318.15 K, x1 = 0.6481	1007	13.43
318.15 K, x1 = 0.7414	1033.5	22.34
318.15 K, x1 = 0.8496	1063.7	47.97
318.15 K, x1 = 0.9402	1088.5	92.14
318.15 K, x1 = 1	1104.7	140.18
323.15 K, x1 = 0.0818	834.4	4.95
323.15 K, x1 = 0.1583	858	5.14
323.15 K, x1 = 0.2414	883.4	5.28
323.15 K, x1 = 0.3482	915.6	5.6
323.15 K, x1 = 0.4414	943.3	6.07
323.15 K, x1 = 0.5593	977.8	7.03
323.15 K, x1 = 0.6481	1003.5	9.04
323.15 K, x1 = 0.7414	1030	15.67
323.15 K, x1 = 0.8496	1060.4	36.3
323.15 K, x1 = 0.9402	1085.3	73.7
323.15 K, x1 = 1	1101.6	110.94

Reference: the NIST ThermoML archive (doi:10.1021/acs.jced.9b00507)
